According to US20230000842A1, “METHODS OF TREATING CARTILAGE DISORDERS THROUGH INHIBITION OF CLK AND DYRK” (SAMUMED, LLC, priority 2019, published 2023):

What was measured:
[1] = system: MMP-3 levels in supernatant of chondrocytes stimulated with IL1-β; experiment: Chondrocyte protection assay compound screening (MMP-3 LANCE Ultra); assay type: cell-based, human; conditions: Homo sapiens, Chondrocyte, IL1-β 10 ng/mL overnight, 11-point curves from 3 μM to 0.05 nM; for Emax: read-out: Maximum % Inhibition
Experimental: Human Chondrocyte Cell Culture: Primary human chondrocytes were purchased from Lonza (Walkersville, Md.) and expanded in Chondrocyte Growth Media (CGM, Lonza). Cells between passage 2 and 5 were used for the experiments.
Chondrocytes were plated at 8,000 cells/well in 40 μL/well Chondrocyte Differentiation Medium (Lonza; 500 mL Basal Medium, 25 mL FBS, 0.5 mL GA-1000, 1 mL R3-IGF, 2.5 mL bFGF, 0.5 mL Transferrin, and 1 mL Insulin). After 2 hours of incubation at 37° C. and 5% CO2, IL1-β (Peprotech, Rocky Hill, N.J.) was added to a final concentration of 10 ng/mL. 11 wells in 1 row were left unstimulated for normalization and calculating EC50 values. Cells were incubated at 37° C. and 5% CO2 overnight. Assay plates are spun, 25 μl of supernatant media was collected using (S2 pipettor, Apricot Designs). Cells were lysed using 10 μL of (Cell Titer-Glo, Promega). Luminescent signal detected using an En Vision Multilabel reader (Perkin Elmer). MMP-3 levels were measured in supernatant. Supernatant diluted 1:7 in DMEM. MMP-3 levels in the supernatant were measured using MMP-3 LANCE Ultra detection kit (Perkin Elmer). Briefly, 5 μL of diluted supernatant was transferred to low-volume 384 well plates using (S2 pipettor, Apricot Designs). A standard curve was prepared using MMP-3 analyte (range […]). 1.7 μL of 8× mix of Eu-labelled anti-MMP-3 antibody and ULight labelled anti-MMP-3 antibody was added to the plates using Mantis Liquid handler (Formulatrix). Plates were incubated overnight at room temperature. LANCE signal was detected using an EnVision Multilabel reader (Perkin Elmer), equipped with TR-FRET using excitation wavelength of 320 nm and two emission wavelengths of 615 nm and 665 nm. Data was analyzed according to the kit protocol, using the ratio of […] and the standard curve values were used to calculate the amount of MMP3 in the […] (in pg/ml). The normalized averages (fold change over IL1-β stimulated) for each compound concentration were calculated. EC50 and maximum % inhibition values were calculated using the dose-response nonlinear regression curve-fit in Dotmatics.

[2] = system: Wnt pathway activity (SW480 colon carcinoma cells stably expressing the Sp5-Luc reporter); experiment: Wnt pathway activity screening assay (Sp5-Luc reporter gene assay); conditions: Homo sapiens, SW480, Table 4; SW480 cells stably expressing Sp5-Luc reporter, 10-point dose-response from 10 μM, 36 to 48 hours
CLK3 kinase = CLK3 kinase (Homo sapiens, UniProt P49761); experiment: CLK3 kinase activity assay (Z-lyte FRET); assay type: biochemical; conditions: Z-lyte Ser/Thr 18 peptide, 156 μM ATP, 1 h at room temperature;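 further: kinase activity read as coumarin/fluorescein emission ratio by FRET, unphosphorylated peptide as 0% and phosphorylated peptide as 100% control, values from non-linear regression of dose-response curves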
CLK2 kinase = CLK2 kinase (Homo sapiens, UniProt P49760); experiment: CLK2 kinase activity assay (Z-lyte FRET); assay type: biochemical; conditions: Z-lyte Ser/Thr 6 peptide, 60 μM ATP, 1 h at room temperature;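 further: FRET read-out as coumarin to fluorescein emission ratio, unphosphorylated peptide as 0% and phosphorylated peptide as 100% controls, duplicate reactions, non-linear regression fit of dose-response curves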
Experimental: This is a non-radioactive assay using fluorescence resonance energy transfer (FRET) between coumarin and fluorescein to detect kinase activity which is represented as a ratio of coumarin emission/fluorescein emission.
The mixture was allowed to incubate with the representative compounds for one hour at room temperature. All reactions were performed in duplicate. Unphosphorylated (“0% Control”) and phosphorylated (“100% control”) forms of Ser/Thr 6 served as control reactions. Additionally, an 11-point dose-response curve of Staurosporine (1 μM top) was run to serve as a positive compound control.
After incubation, Development Reagent A was diluted in Development Buffer then added to the reaction and allowed to further incubate for one hour at room temperature.
Dose-response curves were generated and inhibitory concentration (IC50) values were calculated using non-linear regression curve fit in the Dotmatics' Studies Software (Bishops Stortford, UK).

[3] = system: primary human mesenchymal stem cells (hMSCs); experiment: Chondrogenesis screening using primary human mesenchymal stem cells; assay type: cell-based; conditions: Homo sapiens, Mesenchymal stem cells, hMSC chondrogenesis; maximum activity relative to TGF-β3 (10 ng/mL) positive control; read-out: Max. Activity as % TGF-β3 activity
Procedure, shortened: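 Primary hMSCs at passage 3–6 were treated across compound concentrations, with TGF-β3 as positive control. Chondrogenic nodule area per well was normalized to 3 DMSO wells on the same plate (fold over DMSO, 2–3 replicates). EC50, maximum activity and the dose reaching it were derived.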

CLK3 kinase, sequence (P49761 whole entry): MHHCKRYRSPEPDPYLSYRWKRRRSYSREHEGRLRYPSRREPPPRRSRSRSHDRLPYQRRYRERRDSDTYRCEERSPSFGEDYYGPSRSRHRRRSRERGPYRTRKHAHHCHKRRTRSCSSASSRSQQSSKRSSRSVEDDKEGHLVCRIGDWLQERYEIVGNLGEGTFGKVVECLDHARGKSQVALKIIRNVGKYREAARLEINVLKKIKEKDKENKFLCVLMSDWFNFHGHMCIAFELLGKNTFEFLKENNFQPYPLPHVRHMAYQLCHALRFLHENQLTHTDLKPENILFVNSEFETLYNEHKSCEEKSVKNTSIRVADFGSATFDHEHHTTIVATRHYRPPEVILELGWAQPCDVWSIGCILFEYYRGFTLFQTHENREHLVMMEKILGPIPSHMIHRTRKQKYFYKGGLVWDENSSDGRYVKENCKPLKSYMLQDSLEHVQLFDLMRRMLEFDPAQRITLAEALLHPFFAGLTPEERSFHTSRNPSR
CLK2 kinase, sequence (P49760 whole entry): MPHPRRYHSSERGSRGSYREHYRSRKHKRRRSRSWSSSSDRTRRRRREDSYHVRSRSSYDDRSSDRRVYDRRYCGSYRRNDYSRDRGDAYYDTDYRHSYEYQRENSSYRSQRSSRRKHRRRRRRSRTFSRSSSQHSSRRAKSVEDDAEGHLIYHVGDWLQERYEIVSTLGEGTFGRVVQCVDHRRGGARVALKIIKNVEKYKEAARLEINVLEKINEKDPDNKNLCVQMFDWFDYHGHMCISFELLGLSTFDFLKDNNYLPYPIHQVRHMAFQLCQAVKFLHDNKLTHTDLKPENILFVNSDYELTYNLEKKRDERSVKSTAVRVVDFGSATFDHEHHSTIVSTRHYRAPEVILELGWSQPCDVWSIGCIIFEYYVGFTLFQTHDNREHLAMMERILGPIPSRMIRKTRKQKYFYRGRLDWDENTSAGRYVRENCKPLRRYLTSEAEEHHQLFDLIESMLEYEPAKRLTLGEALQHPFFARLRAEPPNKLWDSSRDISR

EC50 [2]	EC50 (CLK3 kinase)	EC50 (CLK2 kinase)	Structure (SMILES)	EC50 [1]	Emax [1]	Emax [3]
20.5 nM	5300 nM	23 nM	O=C(Nc1c[nH]nc1C(=O)Nc1cccnc1)c1cccnc1 [compound 1]	38.9 nM	100%	
119 nM	3700 nM	24 nM	O=C(Nc1c[nH]nc1C(=O)Nc1ccc(OCCN2CCCC2)cc1)c1cccnc1 [compound 3]	811 nM	23.7%	
123 nM	6610 nM	57 nM	COc1cncc(C(=O)Nc2c[nH]nc2C(=O)Nc2ccc(CN(C)C)cc2)c1 [compound 4]	≥ 3000 nM	99.9%	
613 nM	6160 nM	27 nM	COc1cncc(C(=O)Nc2c[nH]nc2C(=O)Nc2ccc3c(c2)CCNC3)c1 [compound 8]	342 nM	76%	
558 nM	6090 nM	45 nM	COc1cncc(C(=O)Nc2c[nH]nc2C(=O)Nc2ccc3c(c2)CCN(C)C3)c1 [compound 9]	≥ 3000 nM	65.6%	
2.5 nM	5150 nM	9 nM	O=C(Nc1c[nH]nc1C(=O)Nc1ccc(N2CCCC2)nc1)c1cncc(OC2CCNCC2)c1 [compound 11]	≥ 3000 nM	80%	
662 nM	3500 nM	14 nM	O=C(Nc1c[nH]nc1C(=O)Nc1ccc(N2CCCCC2)nc1)c1cncc(OC2CCNCC2)c1 [compound 13]	≥ 3000 nM	71%	
2.9 nM	485 nM	2 nM	O=C(Nc1c[nH]nc1-c1nc2c(-c3cccc(F)c3)cccc2[nH]1)c1cccnc1 [compound 15]	76.5 nM	100%	
2150 nM	3990 nM	20 nM	Cc1[nH]nc(C(=O)Nc2ccc(CN3CCCC3)cc2)c1/C=C/c1cccnc1 [compound 18]	1050 nM	25.5%	
1850 nM	967 nM	6 nM	O=C(Nc1ccc(OCCN2CCCC2)cc1)c1n[nH]cc1/C=C/c1cccnc1 [compound 19]	≥ 3000 nM	31.1%	
1650 nM	563 nM	5 nM	O=C(Nc1ccc(N2CCNCC2)nc1)c1n[nH]cc1/C=C/c1cccnc1 [compound 20]	0.2 nM	72.6%	
964 nM	733 nM	4 nM	CN1CCC(Oc2ccc(NC(=O)c3n[nH]cc3/C=C/c3cccnc3)cn2)CC1 [compound 21]	≥ 3000 nM	92.6%	
> 10000 nM	2330 nM	7 nM	Cc1[nH]nc(C(=O)Nc2ccc(OC3CCN(C)CC3)nc2)c1/C=C/c1cccnc1 [compound 22]	17.8 nM	64.6%	
1450 nM	1250 nM	26 nM	COc1ccc(NC(=O)c2n[nH]cc2/C=C/c2cncc(CN3CCCCC3)c2)cn1 [compound 24]	≥ 3000 nM	74.1%	
> 10000 nM	> 10000 nM	32 nM	O=C(Nc1ccc(C2CCC(F)(F)C2)nc1)c1n[nH]cc1C#Cc1cccnc1 (centres unmarked) [compound 27]	≥ 3000 nM	88.5%	
1640 nM	5250 nM		Cc1n[nH]c2ccc(-c3cncc(OCCN)c3)cc12 [compound 34]	≥ 3000 nM	12.9%	
3510 nM	3400 nM	70 nM	Cc1n[nH]c2ccc(-c3cncc(N4CC(C)(N)C4)n3)cc12 [compound 36]	1610 nM		
1730 nM	5500 nM	43 nM	CCC1(N)CN(c2cncc(-c3ccc4[nH]nc(C)c4c3)n2)C1 [compound 37]	≥ 3000 nM	55.1%	

EC50 [2]	EC50 (CLK3 kinase)	EC50 (CLK2 kinase)	Structure (SMILES)	EC50 [1]	Emax [1]	Emax [3]
1430 nM	8010 nM	35 nM	Cc1n[nH]c2ccc(-c3cncc(N4CCC[C@H](N)C4)n3)cc12 [compound 38]	≥ 3000 nM	97.5%	
1900 nM	4260 nM	25 nM	Cc1n[nH]c2ccc(-c3cncc(N4CCC(O)CC4)n3)cc12 [compound 39]	47.8 nM	60.8%	
95 nM	309 nM	1 nM	Cc1n[nH]c2ccc(-c3cncc(N[C@H]4CC[C@H](O)CC4)n3)cc12 [compound 43]	≥ 3000 nM	41.9%	
780 nM	1100 nM	3 nM	Cc1n[nH]c2ccc(-c3cncc(NCC4(F)CNC4)n3)cc12 [compound 48]	2270 nM	100%	
3250 nM	2200 nM	6 nM	Cc1n[nH]c2ccc(-c3cncc(OCC4(F)CNC4)n3)cc12 [compound 49]	3.5 nM	66.1%	
2810 nM	5730 nM	27 nM	Cc1n[nH]c2ccc(-c3cncc(OC[C@@H]4Cc5ccccc5CN4)n3)cc12 [compound 50]	≥ 3000 nM	44.4%	
1150 nM	3490 nM	19 nM	Cc1n[nH]c2ccc(-c3cc(OC[C@H](N)Cc4ccccc4)cnn3)cc12 [compound 53]	≥ 3000 nM	74.9%	
795 nM	916 nM	8 nM	O=C(Nc1cccnc1)c1n[nH]c2ncc(-c3cccnc3)cc12 [compound 61]	2.2 nM	69.2%	
196 nM	47 nM	1 nM	O=C(Nc1ccc(CN2CCCC2)cc1)c1n[nH]c2ccc(-c3cccnc3F)cc12 [compound 65]	≥ 3000 nM	98.1%	
310 nM	3 nM		c1cncc(-c2ccc3[nH]nc(-c4cc5c(-c6cccnc6)cncc5[nH]4)c3c2)c1 [compound 341]	1.1 nM	58.2%	58.2%
	14 nM	1 nM	CN1CCC(Oc2ccc(C(=O)Nc3cc4cc(-c5cnn(C)c5)ccc4cn3)cc2)CC1 [compound 541]	≥ 3000 nM	95.6%	25.4%
	15 nM	2 nM	Cn1ncc(-c2ccc3cnc(NC(=O)c4cccc(CN5CCCC5)c4)cc3c2)c1CN1CCCCC1 [compound 572]	1190 nM	96.5%	27.6%
	26 nM	2 nM	CC(C)N1CCC(Oc2cc(C(=O)Nc3cc4cc(-c5cnn6c5CCNC6)ccc4cn3)ccn2)CC1 [compound 575]	75.8 nM	41.5%	18.6%
	33 nM	1 nM	Cn1cncc1-c1ccc2cnc(NC(=O)c3ccc(F)cc3)cc2c1 [compound 580]	≥ 3000 nM	59.4%	24.9%
	43 nM	2 nM	O=C(Nc1cc2cc(-c3cncs3)ccc2cn1)c1ccc2c(c1)CNCC2 [compound 592]	≥ 3000 nM	29.7%	
	22 nM	3 nM	CN1CCN(c2cc(C(=O)Nc3cc4cc(-c5cnc(N)s5)ccc4cn3)ccn2)CC1 [compound 593]	0.4 nM	62.9%	
	14 nM	2 nM	Cc1nnc(-c2ccc3cnc(NC(=O)c4ccnc(C5CCN(C)CC5)c4)cc3c2)s1 [compound 594]	143 nM	35.3%	
